Columns and labels:
Type in all cases: in vivo
[1] = system: Echinochloa crus-galli (ECHCG); test: Glasshouse herbicide test, post-emergence; conditions: POST Application; 500 g/h; evaluated after 13 days
Description: (§1) Seeds of a variety of test species are shown in standard soil in pots (Lolium perenne (LOLPE), Amaranthus retoflexus (AMARE), Abutilon theophrasti (ABUTH), Setaria faberi (SETFA), Echinochloa crus-galli (ECHCG), Ipomoea hederacea (IPOHE)). After cultivation for one day (pre-emergence) or after 8 days cultivation (post-emergence) under controlled conditions in a glasshouse (at 24/16° C., day/night; 14 hours light; 65% humidity), the plants are sprayed with an aqueous spray solution derived from the formulation of the technical active ingredient in acetone/water (50:50) solution containing 0.5% Tween 20 (polyoxyethelyene sorbitan monolaurate, CAS RN 9005-64-5). Compounds are applied at 500 g/h. The test plants are then grown in a glasshouse under controlled conditions in a glasshouse (at 24/16° C., day/night; 14 hours light; 65% humidity) and watered twice daily. After 13 days for pre and post-emergence, the test is evaluated for the percentage damage caused to the plant. The biological activities are shown in the following table on a five point scale (5=80-100%; 4=60-79%; 3=40-59%; 2=20-39%; 1=0-19%).

[2] = system: Ipomoea hederacea (IPOHE); test: Glasshouse herbicide test, post-emergence; conditions: POST Application; 500 g/h; evaluated after 13 days
Description: as §1

[3] = system: Amaranthus retoflexus (AMARE); test: Glasshouse herbicide test, post-emergence; conditions: POST Application; 500 g/h; evaluated after 13 days
Description: as §1

Setaria faberi (SETFA) [4] = test: Glasshouse herbicide test, post-emergence; conditions: POST Application; 500 g/h; evaluated after 13 days
Description: as §1

[5] = system: Abutilon theophrasti (ABUTH); test: Glasshouse herbicide test, post-emergence; conditions: POST Application; 500 g/h; evaluated after 13 days
Description: as §1

[6] = system: Amaranthus retroflexus (AMARE); test: Comparative experiment, post-emergence phytotoxicity; conditions: POST Application; Rate 125 g/ha
Description: (§2) A comparative experiment is conducted to show the advantage provided by the compounds of the present invention. Thus the biological performance of representative compounds 1.001, 1.043, 2.002 & 2.024 of the present invention are compared with Compound C1, which is an aniline compound of the type referred to in WO2012/028579. Results are given as (%) phytotoxicity observed.

Setaria faberi (SETFA) [7] = test: as above; conditions: POST Application; Rate 125 g/ha
Description: as §2

[8] = system: Echinochloa crus-galli (ECHCG); test: Glasshouse herbicide test, pre-emergence; conditions: PRE Application; 500 g/h; evaluated after 13 days
Description: as §1

[9] = system: Ipomoea hederacea (IPOHE); test: Glasshouse herbicide test, pre-emergence; conditions: PRE Application; 500 g/h; evaluated after 13 days
Description: as §1

[10] = system: Amaranthus retoflexus (AMARE); test: Glasshouse herbicide test, pre-emergence; conditions: PRE Application; 500 g/h; evaluated after 13 days
Description: as §1

Setaria faberi (SETFA) [11] = test: Glasshouse herbicide test, pre-emergence; conditions: PRE Application; 500 g/h; evaluated after 13 days
Description: as §1

[12] = system: Abutilon theophrasti (ABUTH); test: Glasshouse herbicide test, pre-emergence; conditions: PRE Application; 500 g/h; evaluated after 13 days
Description: as §1

SMILES	percentage damage caused to the plant, five point scale, ECHCG [1]	percentage damage caused to the plant, five point scale, IPOHE [2]	percentage damage caused to the plant, five point scale, AMARE [3]	percentage damage caused to the plant, five point scale, SETFA (Setaria faberi (SETFA) [4])	percentage damage caused to the plant, five point scale, ABUTH [5]	(%) phytotoxicity observed, AMARE [6]	(%) phytotoxicity observed, SETFA (Setaria faberi (SETFA) [7])	percentage damage caused to the plant, five point scale, ECHCG [8]	percentage damage caused to the plant, five point scale, IPOHE [9]	percentage damage caused to the plant, five point scale, AMARE [10]	percentage damage caused to the plant, five point scale, SETFA (Setaria faberi (SETFA) [11])	percentage damage caused to the plant, five point scale, ABUTH [12]
CON(C(C)=O)c1c(C(F)(F)F)ccc(C(=O)Nc2nnnn2C)c1Cl [Compound 1.001, 3-[acetyl(methoxy)amino]-2-chloro-N-(1-methyltetrazol-5-yl)-4-(trifluoromethyl)benzamide]	5 (5=80-100%)	5 (5=80-100%)	5 (5=80-100%)	5 (5=80-100%)	5 (5=80-100%)	90%	90%	5 (5=80-100%)	5 (5=80-100%)	5 (5=80-100%)	5 (5=80-100%)	5 (5=80-100%)
CON(C)c1c(S(C)(=O)=O)ccc(C(=O)Nc2nnnn2C)c1Cl [Compound 1.043, 2-chloro-3-[methoxy(methyl)amino]-4-methylsulfonyl-N-(1-methyltetrazol-5-yl)benzamide]	5 (5=80-100%)	5 (5=80-100%)	5 (5=80-100%)	5 (5=80-100%)	5 (5=80-100%)	100%	90%	5 (5=80-100%)	5 (5=80-100%)	5 (5=80-100%)	5 (5=80-100%)	5 (5=80-100%)
CON(C(C)=O)c1c(C(F)(F)F)ccc(C(=O)Nc2nnc(C)o2)c1Cl [Compound 2.001]	5 (5=80-100%)	5 (5=80-100%)	5 (5=80-100%)	5 (5=80-100%)	5 (5=80-100%)			5 (5=80-100%)	4 (4=60-79%)	5 (5=80-100%)	5 (5=80-100%)	5 (5=80-100%)
CON(C(C)=O)c1c(C(F)(F)F)ccc(C(=O)Nc2nnc(C)o2)c1C [Compound 2.002]	5 (5=80-100%)	5 (5=80-100%)	5 (5=80-100%)	5 (5=80-100%)	5 (5=80-100%)	50%	90%	5 (5=80-100%)	5 (5=80-100%)	5 (5=80-100%)	5 (5=80-100%)	5 (5=80-100%)
CON(C(=O)OC(C)(C)C)c1c(C(F)(F)F)ccc(C(=O)Nc2nnc(C)o2)c1Cl [Compound 2.009, tert-butyl N-[2-chloro-3-[(5-methyl-1,3,4-oxadiazol-2-yl)carbamoyl]-6-(trifluoromethyl)phenyl]-N-methoxy-carbamate]	5 (5=80-100%)	3 (3=40-59%)	3 (3=40-59%)	5 (5=80-100%)	3 (3=40-59%)			5 (5=80-100%)	1 (1=0-19%)	5 (5=80-100%)	2 (2=20-39%)	3 (3=40-59%)
CCC(=O)N(OC)c1c(C(F)(F)F)ccc(C(=O)Nc2nnc(C)o2)c1Cl [Compound 2.018]	5 (5=80-100%)	5 (5=80-100%)	5 (5=80-100%)	5 (5=80-100%)	5 (5=80-100%)			5 (5=80-100%)	4 (4=60-79%)	5 (5=80-100%)	5 (5=80-100%)	5 (5=80-100%)
CCCON(C)c1c(S(C)(=O)=O)ccc(C(=O)Nc2nnc(C)o2)c1Cl [Compound 2.024]	5 (5=80-100%)	5 (5=80-100%)	5 (5=80-100%)	5 (5=80-100%)	5 (5=80-100%)	80%	80%	5 (5=80-100%)	5 (5=80-100%)	5 (5=80-100%)	5 (5=80-100%)	5 (5=80-100%)
Cn1nnnc1NC(=O)c1ccc(C(F)(F)F)c(N)c1Cl [Compound C1, reference compound]						10%	20%					

Source: patent US11851411B2, “Herbicidal compounds” (SYNGENTA CROP PROTECTION AG, priority 2018, dated 2023)
